Legend:
[1] = logp (HCOOH), physicochemical characterization
[2] = tested on: Triticum aestivum (spring); test: Pre-emergence herbicidal effect and crop plant compatibility; type: in vivo; details: 80 g/ha, 3 weeks
Summary of the method: (§1)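 Pre-emergence greenhouse test: seeds sown in sandy loam, compounds (WP or EC) sprayed onto covering soil as aqueous suspension/emulsion at 600 to 800 L/ha water with 0.2% wetting agent. Damage scored visually after 3 weeks versus untreated controls as percent efficacy (100% = plants dead).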

Zea mays [3] = test: as above; type: in vivo; details: 3 weeks
Summary of the method: as §1

Alopecurus myosuroides [4] = test: Pre-emergence herbicidal effect; type: in vivo; details: 3 weeks
Summary of the method: as §1

Amaranthus retroflexus = test: Pre-emergence herbicidal effect; type: in vivo; details: 3 weeks
Summary of the method: as §1

Cyperus esculentus = test: Pre-emergence herbicidal effect; type: in vivo; details: 3 weeks
Summary of the method: as §1

Echinochloa crus-galli [5] = test: Pre-emergence herbicidal effect; type: in vivo; details: 3 weeks
Summary of the method: as §1

Lolium multiflorum [6] = test: Pre-emergence herbicidal effect; type: in vivo; details: 3 weeks
Summary of the method: as §1

Matricaria inodora = test: Pre-emergence herbicidal effect; type: in vivo; details: 3 weeks
Summary of the method: as §1

Polygonum convolvulus = test: Pre-emergence herbicidal effect; type: in vivo; details: 3 weeks
Summary of the method: as §1

Setaria viridis [7] = test: Pre-emergence herbicidal effect; type: in vivo; details: 3 weeks
Summary of the method: as §1

Stellaria media = test: Pre-emergence herbicidal effect; type: in vivo; details: 3 weeks
Summary of the method: as §1

Veronica persica = test: Pre-emergence herbicidal effect; type: in vivo; details: 3 weeks
Summary of the method: as §1

Viola tricolor = test: Pre-emergence herbicidal effect; type: in vivo; details: 3 weeks
Summary of the method: as §1

Oryza sativa = test: Post-emergence herbicidal effect and crop plant compatibility; type: in vivo; details: visual scoring after about 3 weeks
Summary of the method: (§2)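 Greenhouse-grown plants at the one-leaf stage (2–3 weeks after sowing) were sprayed with WP or EC formulations in water at 600–800 L/ha plus 0.2% wetting agent. About 3 weeks later, efficacy was scored visually against untreated controls: 100% = plants dead, 0% = like control.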

[8] = tested on: Triticum aestivum (spring); test: as above; type: in vivo; details: visual scoring after about 3 weeks
Summary of the method: as §2

Zea mays [9] = test: as above; type: in vivo; details: visual scoring after about 3 weeks
Summary of the method: as §2

Alopecurus myosuroides [10] = test: Post-emergence herbicidal effect; type: in vivo; details: 320 g/ha, visual scoring after about 3 weeks
Summary of the method: as §2

Avena fatua [11] = test: Post-emergence herbicidal effect; type: in vivo; details: 320 g/ha, visual scoring after about 3 weeks
Summary of the method: as §2

Echinochloa crus-galli [12] = test: Post-emergence herbicidal effect; type: in vivo; details: visual scoring after about 3 weeks
Summary of the method: as §2

Ipomoea purpurea = test: Post-emergence herbicidal effect; type: in vivo; details: scoring after about 3 weeks
Summary of the method: as §2

Lolium multiflorum [13] = test: Post-emergence herbicidal effect; type: in vivo; details: visual scoring after about 3 weeks
Summary of the method: as §2

Setaria viridis [14] = test: Post-emergence herbicidal effect; type: in vivo; details: 320 g/ha (dose by row order of upper half), scoring after about 3 weeks
Summary of the method: as §2

Abutilon theophrasti = test: Pre-emergence herbicidal effect; type: in vivo; details: 320 g/ha, 3 weeks
Summary of the method: as §1

Avena fatua [15] = test: Pre-emergence herbicidal effect; type: in vivo; details: 320 g/ha, 3 weeks
Summary of the method: as §1

SMILES | logp (HCOOH) [1] | TRZAS herbicidal activity in percent [2] [%] | ZEAMX herbicidal activity in percent (Zea mays [3]; 80 g/ha) [%] | ALOMY herbicidal activity in percent (Alopecurus myosuroides [4]; 80 g/ha) [%] | ALOMY herbicidal activity in percent (Alopecurus myosuroides [4]; 320 g/ha) [%] | AMARE herbicidal activity in percent (Amaranthus retroflexus; 80 g/ha) [%] | AMARE herbicidal activity in percent (Amaranthus retroflexus; 320 g/ha) [%] | CYPES herbicidal activity in percent (Cyperus esculentus; 320 g/ha) [%] | ECHCG herbicidal activity in percent (Echinochloa crus-galli [5]; 80 g/ha) [%] | ECHCG herbicidal activity in percent (Echinochloa crus-galli [5]; 320 g/ha) [%] | LOLMU herbicidal activity in percent (Lolium multiflorum [6]; 80 g/ha) [%] | LOLMU herbicidal activity in percent (Lolium multiflorum [6]; 320 g/ha) [%] | MATIN herbicidal activity in percent (Matricaria inodora; 80 g/ha) [%] | MATIN herbicidal activity in percent (Matricaria inodora; 320 g/ha) [%] | POLCO herbicidal activity in percent (Polygonum convolvulus; 80 g/ha) [%] | POLCO herbicidal activity in percent (Polygonum convolvulus; 320 g/ha) [%] | SETVI herbicidal activity in percent (Setaria viridis [7]; 80 g/ha) [%] | SETVI herbicidal activity in percent (Setaria viridis [7]; 320 g/ha) [%] | STEME herbicidal activity in percent (Stellaria media; 80 g/ha) [%] | STEME herbicidal activity in percent (Stellaria media; 320 g/ha) [%] | further results
CC(=O)c1cnc(N[C@H]2c3cc(C)ccc3C[C@@H]2C)nc1C [1.26] | solid; logp (HCOOH): 3.56; 1H-NMR (CDCl3, 400 MHZ, δ in ppm): 1.20 (d, 3H, | 0 | 0 | 90 | 90 | 100 | 100 | 80 | 100 | 100 | 80 | 100 | 100 | 100 | 100 | 100 | 100 | 100 | 100 | 100 | ZEAMX herbicidal activity in percent (Zea mays [3]; 320 g/ha): 0%; CYPES herbicidal activity in percent (Cyperus esculentus; 80 g/ha): 80%; VERPE herbicidal activity in percent (Veronica persica; 80 g/ha): 100%; VERPE herbicidal activity in percent (Veronica persica; 320 g/ha): 100%; VIOTR herbicidal activity in percent (Viola tricolor; 80 g/ha): 100%; VIOTR herbicidal activity in percent (Viola tricolor; 320 g/ha): 100%; post-emergence efficacy ORYSA (Oryza sativa; 80 g/ha): 0%; post-emergence efficacy ORYSA (Oryza sativa; 320 g/ha): 0%; post-emergence efficacy TRZAS ([8]; 80 g/ha): 0%; post-emergence efficacy ZEAMX (Zea mays [9]; 80 g/ha): 0%; post-emergence efficacy ZEAMX (Zea mays [9]; 320 g/ha): 0%; post-emergence efficacy ALOMY (Alopecurus myosuroides [10]): 90%; post-emergence efficacy AVEFA (Avena fatua [11]): 80%; post-emergence efficacy ECHCG (Echinochloa crus-galli [12]; 80 g/ha): 90%; post-emergence efficacy ECHCG (Echinochloa crus-galli [12]; 320 g/ha): 100%; post-emergence efficacy PHBPU (Ipomoea purpurea; 320 g/ha (dose by row order of upper half)): 90%; post-emergence efficacy LOLMU (Lolium multiflorum [13]; 320 g/ha): 80%; post-emergence efficacy SETVI (Setaria viridis [14]): 90%
Cc1ccc2c(c1)[C@H](Nc1ncc3c(n1)CCCC3=O)[C@@H](C)C2 [2.43] | solid; logp (HCOOH): 3.45; 1H-NMR (CDCl3, 400 MHZ, δ in ppm): 1.25 (t, 3H, CH3); | 0 | 20 | 100 | 100 | 100 | 100 | 80 | 100 | 100 | 100 | 100 | 100 | 100 | 100 | 100 | 90 | 100 | 100 | 100 | ABUTH herbicidal activity in percent (Abutilon theophrasti): 100%; AVEFA herbicidal activity in percent (Avena fatua [15]): 100%; VERPE herbicidal activity in percent (Veronica persica; 80 g/ha): 100%; VERPE herbicidal activity in percent (Veronica persica; 320 g/ha): 100%; VIOTR herbicidal activity in percent (Viola tricolor; 80 g/ha): 100%; VIOTR herbicidal activity in percent (Viola tricolor; 320 g/ha): 100%; post-emergence efficacy ORYSA (Oryza sativa; 80 g/ha): 10%; post-emergence efficacy TRZAS ([8]; 80 g/ha): 10%; post-emergence efficacy TRZAS ([8]; 320 g/ha): 10%; post-emergence efficacy ZEAMX (Zea mays [9]; 80 g/ha): 0%; post-emergence efficacy AVEFA (Avena fatua [11]): 100%; post-emergence efficacy ECHCG (Echinochloa crus-galli [12]; 80 g/ha): 90%; post-emergence efficacy ECHCG (Echinochloa crus-galli [12]; 320 g/ha): 90%; post-emergence efficacy PHBPU (Ipomoea purpurea; 80 g/ha (dose by row order of upper half)): 80%; post-emergence efficacy LOLMU (Lolium multiflorum [13]; 80 g/ha): 80%; post-emergence efficacy LOLMU (Lolium multiflorum [13]; 320 g/ha): 100%; post-emergence efficacy SETVI (Setaria viridis [14]): 80%

Source: US10183914B2 (BAYER CROPSCIENCE AKTIENGESELLSCHAFT, priority 2014, dated 2019)
